Results reported in patent US20070117840A1, “Receptor antagonist” (priority 2004, published 2007).

Legend:
human-type OT7T022 [1] = biological target: T1, human-type OT7T022 (Homo sapiens, UniProt Q9GZQ6); test: Binding inhibiting activity using human-type OT7T022-expressing CHO cell (125I-Y-RFRP-3); settings: human-type OT7T022-expressing CHO cell membrane fraction, 125I-labeled Y-RFRP-3 100 pM; read-out: IC50 value (binding inhibiting rate)
T1 construct: expressed in transfected cells; host or cells: CHO cells (membrane fraction)
T1 sequence (Q9GZQ6 whole entry): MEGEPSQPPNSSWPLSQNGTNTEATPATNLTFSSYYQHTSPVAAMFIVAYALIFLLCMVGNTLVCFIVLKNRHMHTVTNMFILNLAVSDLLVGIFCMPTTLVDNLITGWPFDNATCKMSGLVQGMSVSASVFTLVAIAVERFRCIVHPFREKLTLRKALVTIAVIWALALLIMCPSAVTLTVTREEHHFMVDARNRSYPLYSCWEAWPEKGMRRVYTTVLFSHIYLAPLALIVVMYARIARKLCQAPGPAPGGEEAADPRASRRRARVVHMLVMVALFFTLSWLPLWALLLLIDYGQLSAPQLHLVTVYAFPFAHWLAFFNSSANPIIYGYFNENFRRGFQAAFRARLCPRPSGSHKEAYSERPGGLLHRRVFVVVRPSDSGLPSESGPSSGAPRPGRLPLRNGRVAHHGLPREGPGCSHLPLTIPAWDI
Protocol: Assessment of Binding Inhibiting Activity of Test Compound Using Human-Type OT7T022-Expressing CHO Cell
(1) Preparation of Iodine-Labeled Entity of Human-Type RFRP-3 (Y-RFRP-3)
A part thereof was 1/100 diluted, radioactivity was measured with a γ-counter, and the remaining authentic product was distributed, which was stored at −30° C.
(2) Assessment of Binding Inhibiting Activity
For measuring non-specific binding, non-labeled Y-RFRP-3 was further added to […]. Then, a membrane fraction was transferred to a unifilter GF/C (Perkin Elmer) by filtering the reaction solution using a cell harvester (Perkin Elmer), and this was washed with a cooled 50 mM Tris buffer (pH 7.5) five times. The filter was dried, Microsinti (Packard) was added to the filter, and radioactivity was measured with Topcount (Packard).
A binding inhibiting rate (IC50 value) of a test compound is shown in [Table 1].

human-type OT7T022 [2] = biological target: T1, human-type OT7T022; test: Antagonist activity in cAMP production inhibiting test system using human-type OT7T022-expressing CHO cell; assay type: cell-based; settings: intracellular cAMP, agonist human-type RFRP-3-8 20 nM, forskolin 2 μM
Protocol: Test of Antagonist Activity of Compound in cAMP Production Inhibiting Test System Using Human-Type OT7T022-Expressing CHO Cell
Antagonist activity of a test compound was measured in an intracellular cAMP production inhibiting test system of a CHO cell expressing human-type OT7T022. In the cAMP production inhibiting test, as an assay buffer, a Hanks' balanced salt solution (Gibco) to which 20 mM HEPES pH 7.4, 0.1% bovine serum albumin, and 0.2 mM 3-isobutyl-1-methylxanthine (Sigma) had been added, was used. A sample compound was adjusted with an assay buffer so that the final concentration became 10^−5M, 10^−6M, 10^−7M, 10^−8M, or 10^−10M. […] A human-type OT7T022-expressing CHO cell was passaged on a 96-well plate at 4×10^4/well, and cultured at 37° C., 5% CO2 and 95% air for one day. The plate which had been cultured for one day was washed with an assay buffer (150 μl) two times and, after 30 minutes, this was cultured for 30 minutes at 37° C. and 100% air. After washed with an assay buffer (150 μl) two times, 50 μl of a sample compound solution and, then, 50 μl of an agonist+forskolin solution were added, the mixture was stirred well and, after 30 minutes, this was cultured for 30 minutes at 37° C. and 100% air. An intracellular cAMP amount was measured according to a protocol of the present kit using cAMP-Screen™ system (ABI). […]

rat-type OT7T022 = biological target: T2, rat-type OT7T022 (Rattus norvegicus, UniProt Q9EP86); test: Binding inhibiting activity using rat-type OT7T022-expressing CHO cell membrane fraction; settings: iodine-labeled Y-RFRP-3 100 pM
T2 construct: expressed in transfected cells; host or cells: CHO cells (membrane fraction)
T2 sequence (Q9EP86 whole entry): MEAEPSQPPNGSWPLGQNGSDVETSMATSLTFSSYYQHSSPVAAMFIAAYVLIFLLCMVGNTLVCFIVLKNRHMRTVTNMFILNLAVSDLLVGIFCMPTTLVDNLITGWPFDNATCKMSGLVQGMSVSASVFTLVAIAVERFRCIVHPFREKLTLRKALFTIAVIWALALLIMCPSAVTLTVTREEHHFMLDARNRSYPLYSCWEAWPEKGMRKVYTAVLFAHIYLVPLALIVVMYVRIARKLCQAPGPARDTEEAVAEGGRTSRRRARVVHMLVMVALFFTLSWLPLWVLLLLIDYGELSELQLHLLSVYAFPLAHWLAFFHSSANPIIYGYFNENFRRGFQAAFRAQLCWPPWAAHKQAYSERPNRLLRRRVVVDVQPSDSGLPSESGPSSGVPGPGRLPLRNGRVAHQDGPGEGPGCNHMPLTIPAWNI
Protocol: Assessment of Binding Inhibiting Activity of Test Compound Using Rat-Type OT7T022-Expressing CHO Cell
(1) Preparation of Rat-Type OT7T022-Expressing CHO Cell Membrane Fraction
A flask in which a rat-type OT7T022-expressing CHO cell had been cultured was washed with 5 mM EDTA/PBS, cells were peeled with 5 mM EDTA/PBS, and cells were recovered by centrifugation, suspended in 25 mL of a buffer for preparing a membrane fraction (50 mM Tris-HCl, pH 7.5, 5 mM EDTA, 0.5 mM PMSF (manufactured by Wako Pure Chemical Industries, Ltd.), […] leupeptin (manufactured by Peptide Laboratory), 0.1 μg/mL pepstatin A (manufactured by Peptide Laboratory), 4 μg/mL E-64 (manufactured by Peptide Laboratory)), and homogenized on an ice using Polytron (12,000 rpm, 15 seconds×3 times). This was centrifuged in a high speed cooling centrifuge at 4° C. and 1,000 g for 10 minutes, and the supernatant was recovered. 25 mL of a buffer for preparing a membrane fraction was added to precipitates, and the supernatant was recovered by the same procedure. […] The pellet was suspended in a small amount of a buffer for preparing a membrane fraction, this was suspended using a Teflon (registered trade mark) homogenizer, a protein amount was measured using a part, and the remaining was dispensed, and stored at −80° C. […]

[3] = Blood glucose concentration after intravenous administration of RFRP-1 to rat; assay type: in vivo, Wistar male rat; settings: 10 nmol/kg, 5 minutes and 15 minutes after administration, compared with physiological saline group
Text: (§1) In FIG. 1, (-∘-) represents a blood glucose concentration of a physiological saline administration group, (-▴-) represents a blood glucose concentration of an RFRP-1 1 nmol/kg administration group, and (-▪-) represents a blood concentration of an RFRP-1 10 nmol/kg administration group.
Blood Glucose Concentration Increasing Activity of RFRP
As RFRP, human RFRP-1 (37 amino acids) consisting of an amino acid sequence of 56th (Ser) to 92nd (Phe) of an amino acid sequence represented by SEQ ID No.: 3. Hereinafter, this peptide is abbreviated as RFRP-1.
In order to study influence of peripheral administration of RFRP-1 on a blood glucose concentration, operation for collecting blood under free moving was performed. A mature Wistar male rat (weight 310 to 350 g at operation) was anesthetized with 50 mg/kg of pentobarbital by intraperitoneal administration. The rat was fixed on an anatomic pad in a supine position, and a left jugular vein was exposed. […]
Overnight after operation, 300 μl of blood was collected using a tuberculin injection syringe having a dose of 1 ml and a 25 gauge injection needle (both Telmo) before administration of RFRP-1. […] A blood glucose concentration was measured using Fuji Drichem 3500 (FUJIFILM).

[4] = Blood glucagon and insulin concentration after intravenous administration of RFRP-1 to rat; assay type: in vivo, Wistar male rat
Text: In FIG. 2, (-∘-) represents a blood glucagon concentration of a physiological saline administration group, (-▴-) represents a blood glucagon concentration of an RFRP-1 1 nmol/kg administration group, and (-▪-) represents a blood glucagon concentration of an RFRP-1 10 nmol/kg administration group.
as §1, with “FIG. 3,” for “FIG. 1,”, “blood insulin” for “blood glucose”, “blood insulin” for “blood”, “group. A value indicates mean±[…] (mean±SE) (n=4).” for “group.”
Pancreatic Glucagon Secretion Promoting Activity of RFRP
In order to study mechanism of blood glucose concentration increasing activity of RFRP-1, influence of RFRP-1 on a blood concentration of glucagon and insulin which are known as a hormone imparting a variation to a blood glucose concentration was studied. A mature Wistar male rat (weight 310 to 350 g at operation) was operated for collecting blood under free moving. Overnight after operation, 300 μl of a blood was collected using a tuberculin injection syringe having a dose of 1 ml and a 25 gauge injection needle (both Telmo) before administration of RFRP-1. […]

| Compound | IC50 (human-type OT7T022 [1]) [nM] | IC50 (human-type OT7T022 [2]) [µM] | IC50 (rat-type OT7T022) [nM] | blood glucose concentration [3] | blood insulin concentration [4] |
| --- | --- | --- | --- | --- | --- |
| CC(C)(C)Cn1c(C(=O)OC(C)(C)C)c(O)c2ccc(F)cc2c1=O [Example 1, tert-Butyl 7-fluoro-4-hydroxy-2-neopentyl-1-oxo-1,2-dihydro-3-isoquinolinecarboxylate] | < 1000 | < 5 | < 1000 | – | – |
| CC(C)(C)Cn1c(C(=O)OC(C)(C)C)c(O)c2cc(Cl)c(Cl)cc2c1=O [Example 3, tert-Butyl 6,7-dichloro-4-hydroxy-2-neopentyl-1-oxo-1,2-dihydro-3-isoquinolinecarboxylate] | < 1000 | < 5 | < 1000 | – | – |
| CCCCOc1c(C(=O)OC(C)(C)C)n(CC(C)(C)C)c(=O)c2ccc(F)cc12 [Reference Example 12, tert-Butyl 4-butoxy-6-fluoro-2-neopentyl-1-oxo-1,2-dihydro-3-isoquinolinecarboxylate] | < 1000 | – | – | – | – |
| RFRP-1: human RFRP-1 (37 amino acids) consisting of 56th (Ser) to 92nd (Phe) of the amino acid sequence of SEQ ID No.: 3 (SLNFEELKDWGPKNVIKMSTPAVNKMPHSFANLPLRF; Human) | – | – | – | significant (p<0.05, n=4) activity of increasing a blood glucose concentration | not recognized |
